Test results as given in PubChem BioAssay AID1918948 (Molecular Pharmacology Branch, DTP, NCI, 2023).

System: K-562 leukemia growth, % test/control
Experiment: Anticancer human tumor K-562 cell line growth inhibition;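 further: spheroids exposed to compounds for 7 days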;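 on viability, T/C: 100% = DMSO vehicle wells and lower values mean fewer viable cells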
Details: spheroids with HUVEC and MSC; for IC50: curve of first compound; for viability, T/C: stronger effect = lower value
Source text: Multicellular complex tumor spheroid response to LSD1 Inhibitor Iadademstat in combination with a variety of drugs and investigational agents in selected tumor cell lines
The current study was undertaken to assess response to LSD1 inhibitors in combination with standard-of-care drugs and investigational agents in solid tumor complex spheroid models as well as in the K-562 leukemia. Complex spheroids include a stromal component modeled by human endothelial cells (HUVEC) and fibroblasts modeled by human mesenchymal stem cells (MSCs). The concentration ranges selected for each drug and investigational agent were based upon clinically achievable concentrations if the clinical Cmax of the agent was known.
Compounds. The drugs and investigational agents used in this study are listed on Table 1. All of the agents used, including staurosporine (NSC755774) and gemcitabine (NSC613327), were obtained from the Developmental Therapeutics Program, NCI. FDA-approved anticancer drugs are available from the NCI at http://dtp.nci.nih.gov/branches/dscb/oncology_drugset_explanation.html. Drugs and investigational agents were >95% pure by proton nuclear magnetic resonance (NMR) and liquid chromatography/mass spectrometry (LC/MS). Stock solutions were prepared at 400x in DMSO, stored at -70 degrees C, and diluted in fresh medium prior to their use. The final concentration of DMSO in cell culture wells never exceeded 0.25% (v/v). The FDA-approved anticancer drug set is available from the Developmental Therapeutics Program at https://dtp.cancer.gov/organization/dscb/obtaining/available_plates.htm. All drugs and investigational agents were tested over a range starting from a high concentration at or near the clinical Cmax and decreasing in half-log increments. If the clinical Cmax for an agent had not been determined, the highest concentration tested was 10 microM.
Cell Lines. The patient-derived cancer cell (PDC) lines: 292921-168-R-J2-PDC, K24384-001-R-PDC, and 521955-158-R2-J5-PDC pancreatic carcinomas, 556581-035-R-J1 ovarian carcinoma, 324938-238-R-J1-PDC, 855422-203-R-J1-PDC and 883617-216-R-J1-PDC urothelial bladder carcinomas, 743489-274-T-PDC renal cell carcinoma, 138582-R-J1 Merkel cell tumor, K60290-347-R-J1 and K57222-313-R-J1-PDC glioblastomas, 653999-131-R-J2-PDC, LG0703-F948-PDC, and 349418-098-R-PDC non-small cell lung carcinomas, 885512-296-R-J2-PDC, 171881-019-R-J1-PDC breast carcinomas and 186277-243-T-J2-PDC and 233499-124-R-J2-PDC colon carcinomas were obtained from the NCI Patient-Derived Models Repository (PDMR, https://pdmr.cancer.gov). The established cell lines NCI/ADR-RES (RRID:CVCL_14520 and OVCAR-5 (RRID:CVCL_1628) ovarian carcinomas, 786-O (RRID:CVCL_1051) and A498 (RRID:CVCL_A498) renal cell carcinoma, NCI-H211 (ATCC, cat. CRL-5824; RRID:CVCL_1529), NCI-H196 (ATCC, cat. CRL-5823, RRID:CVCL_1509), SW 1271 (ATCC, cat. CRL-2177, RRID:CVCL_1716) and NCI-H1876 (ATCC, cat. CRL-5902, RRID:CVCL_1503) small cell lung carcinomas, MDA-MB-231 (RRID:CVCL_0062) and MDA-MB-468 (RRID:CVCL_0419)breast carcinomas (10-12). Pooled donor human umbilical vein endothelial cells (HUVEC, Lonza, cat. CC-2519) and human mesenchymal stem cells (hMSC, Lonza, cat. PT-2501) were purchased from Lonza (Walkersville, MD).
Cell Culture. All cells were maintained in an incubator at 37 degrees C and 5% CO2 with 95% humidity. The PDC lines were cultured according to standard operating procedures established by the NCI PDMR (https://pdmr.cancer.gov). Briefly all PDCs were thawed and cultured in Matrigel-coated flasks prepared with a working solution of 1X Ham's F-12 nutrient mix, without supplementation (Invitrogen, Waltham, MA, cat. 11765054), 100 U/mL penicillin-streptomycin (Invitrogen, cat. 15140122), and 2.5% Matrigel (Corning Inc., Corning, NY, cat. 354248) for the first three passages. […]

Question: With `COc1cc(C2c3cc4c(cc3C(OC3OC5COC(C)OC5C(O)C3O)C3COC(=O)C23)OCO4)cc(OC)c1O` (stereo not given) + NC1CC1c1ccc(-c2cccc(O)c2)cc1 as the compound, how does the IC50 (second compound 0.1 µM) read?
Answer: 32.3 nM

Question: And the IC50 (second compound 0.316 µM)?
Answer: 29.2 nM

Question: And the IC50 (second compound 1 µM)?
Answer: 25.2 nM

Question: What about the IC50 (second compound 3.16 µM) of the same compound?
Answer: 21.1 nM

Question: What about the IC50 (second compound 10 µM) of the same compound?
Answer: 12.4 nM

Question: What about the viability, T/C (second compound 0.1 µM, first compound 0.00949 µM) of the same compound?
Answer: 89.1%

Question: What about the viability, T/C (second compound 0.1 µM, first compound 0.03 µM) of the same compound?
Answer: 34.1%

Question: What about the viability, T/C (second compound 0.1 µM, first compound 0.0949 µM) of the same compound?
Answer: 40%

Question: What about the viability, T/C (second compound 0.1 µM, first compound 0.3 µM) of the same compound?
Answer: 32.2%

Question: And the viability, T/C (second compound 0.1 µM, first compound 0.949 µM)?
Answer: 5.98%

Question: And the viability, T/C (second compound 0.1 µM, first compound 3 µM)?
Answer: 1.51%

Question: And the viability, T/C (second compound 0.316 µM, first compound 0.00949 µM)?
Answer: 82.5%

Question: What about the viability, T/C (second compound 0.316 µM, first compound 0.03 µM) of the same compound?
Answer: 33.9%

Question: And the viability, T/C (second compound 0.316 µM, first compound 0.0949 µM)?
Answer: 40%

Question: And the viability, T/C (second compound 0.316 µM, first compound 0.3 µM)?
Answer: 26.1%

Question: What about the viability, T/C (second compound 0.316 µM, first compound 0.949 µM) of the same compound?
Answer: 4.21%

Question: And the viability, T/C (second compound 0.316 µM, first compound 3 µM)?
Answer: 1.39%

Question: What about the viability, T/C (second compound 1 µM, first compound 0.00949 µM) of the same compound?
Answer: 76.1%

Question: And the viability, T/C (second compound 1 µM, first compound 0.03 µM)?
Answer: 31.1%

Question: And the viability, T/C (second compound 1 µM, first compound 0.0949 µM)?
Answer: 39%

Question: What about the viability, T/C (second compound 1 µM, first compound 0.3 µM) of the same compound?
Answer: 22.8%

Question: And the viability, T/C (second compound 1 µM, first compound 0.949 µM)?
Answer: 3.44%

Question: What about the viability, T/C (second compound 1 µM, first compound 3 µM) of the same compound?
Answer: 2.06%

Question: And the viability, T/C (second compound 3.16 µM, first compound 0.00949 µM)?
Answer: 68.8%

Question: What about the viability, T/C (second compound 3.16 µM, first compound 0.03 µM) of the same compound?
Answer: 28.7%

Question: What about the viability, T/C (second compound 3.16 µM, first compound 0.0949 µM) of the same compound?
Answer: 40.2%

Question: What about the viability, T/C (second compound 3.16 µM, first compound 0.3 µM) of the same compound?
Answer: 20%

Question: What about the viability, T/C (second compound 3.16 µM, first compound 0.949 µM) of the same compound?
Answer: 3.6%

Question: What about the viability, T/C (second compound 3.16 µM, first compound 3 µM) of the same compound?
Answer: 2.13%

Question: What about the viability, T/C (second compound 10 µM, first compound 0.00949 µM) of the same compound?
Answer: 57.5%

Question: And the viability, T/C (second compound 10 µM, first compound 0.03 µM)?
Answer: 28.1%

Question: What about the viability, T/C (second compound 10 µM, first compound 0.0949 µM) of the same compound?
Answer: 34.1%

Question: And the viability, T/C (second compound 10 µM, first compound 0.3 µM)?
Answer: 14.8%

Question: And the viability, T/C (second compound 10 µM, first compound 0.949 µM)?
Answer: 2.21%

Question: What about the viability, T/C (second compound 10 µM, first compound 3 µM) of the same compound?
Answer: 1.35%
